Experimental data: PubChem BioAssay (NCI)
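These data come from cells grown in 96-well plates and exposed to compound for 48 hours at five concentrations. Here, GI50 denotes the concentration required for 50% inhibition of growth. TGI: total growth inhibition.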

Assays:
Assay in all cases: NCI tumour cell line growth inhibition, 48 h
SNB-78 CNS = test system: SNB-78 CNS
PC-3 prostate = test system: PC-3 prostate
DMS 114 small cell lung = test system: DMS 114 small cell lung
COLO 205 colon = test system: COLO 205 colon
SNB-19 CNS = test system: SNB-19 CNS
MALME-3M melanoma = test system: MALME-3M melanoma
NCI-H226 lung = test system: NCI-H226 lung
UACC-257 melanoma = test system: UACC-257 melanoma
SK-OV-3 ovarian = test system: SK-OV-3 ovarian
IGROV1 ovarian = test system: IGROV1 ovarian

| Compound | TGI (SNB-78 CNS) | TGI (PC-3 prostate) | TGI (DMS 114 small cell lung) | TGI (COLO 205 colon) | TGI (SNB-19 CNS) | TGI (MALME-3M melanoma) | TGI (NCI-H226 lung) | TGI (UACC-257 melanoma) | TGI (SK-OV-3 ovarian) | TGI (IGROV1 ovarian) | GI50 (DMS 114 small cell lung) |
| --- | --- | --- | --- | --- | --- | --- | --- | --- | --- | --- | --- |
| Clc1ccc2ns[s+]c2c1 | > 100 µM | > 100 µM | > 100 µM | > 44.9 µM | > 100 µM | > 100 µM | > 100 µM | > 100 µM | > 100 µM | > 100 µM |  |
| Nc1cc2[nH]cnc2c(=O)[nH]1 | > 300 µM | > 300 µM | > 300 µM | 228 µM | > 300 µM | 298 µM | > 212 µM | > 300 µM | > 188 µM | > 300 µM |  |
| O=c1cc(-c2ccccn2)[nH]c2cc(F)ccc12 | > 100 µM |  | > 100 µM | > 100 µM | > 100 µM | > 100 µM | > 100 µM | > 100 µM | > 100 µM | > 100 µM | 52.4 µM |
